Results published in patent US10912817B2, “Prelyophilized, lyophilized and reconstituted formulations comprising TAT-NR2B9C with d-amino acids, histidine and trehalose” (NoNO Inc., priority 2012, dated 2021).
No end group written: not given here.

What was measured:
Type in all cases: physicochemical
[1] = Solid state stability of lyophilized 270 mg NA-1 in 20 mM histidine pH 6.5 and 120 mM trehalose; conditions: same lyophile; at −20° C.
[2] = Solubility study of NA-1 (visual analysis); conditions: pH 6.5, 35, 50, 75 and 100 mg/mL, t=0 and t=24 hours
Description: Due to the relatively low Tg temperatures that would likely require a longer lyophilization cycle to dry, we looked at a wider range of standard bulking agents and looked to reduce the fill volume into the container closure system so that there would be a reduced volume of liquid to lyophilize. […] Samples were visually analyzed at 35, 50, 75 and 100 mg/mL. All solutions were clear at t=0 and t=24 hours. […] A wide range of quantities may be required in a vial, but 270 mg would provide a […] dose for a 100 kg patient. Assuming the target reconstitution concentration for patient administration is still 20 mg/mL (but can be from 1 mg/ml to 100 mg/ml), then a 20-mL lyophilization vial containing 270 mg of NA-1 can be used with a reconstitution volume of 13.5 mL. Therefore, optimal volumes of liquid for lyophilization of NA-1 in the vial would be between 2.5 mL and 10 mL.

[3] = 90 mg/mL NA-1 lyophile accelerated stability (small scale 3); conditions: histidine buffer concentrations of 50 and 75 mM; further tests; shortened resuspension times
Description: A small batch of NA-1 drug product was lyophilized to evaluate solid state stability after 1 week storage at 25° C. and 60° C. Two 90 mg/mL NA-1 formulations were compounded (buffer and buffer with trehalose). Samples were evaluated for appearance, reconstitution, water content and purity by HPLC (MSA method) at t=0 and t=1 week.
Vials were placed on stability at 25° C. and 60° C. and tested after 1 week of storage.

YGRKKRRQRRRKLSSIESDV [NA-1]
stability of the formulation [1]: stable | solubility (visual analysis of solutions) ([2]; NA-1 in Histidine+Trehalose): clear | solubility (visual analysis of solutions) ([2]; NA-1 in Histidine): clear | stability of NA-1 [3]: good stability
